Species on record: Rattus norvegicus
Test: Open TG-GATES - Regimen: Daily Repeat
Type: toxicity, organism-based, Sprague-Dawley
Parameters: regimen Daily Repeat, gender Male, age 6 weeks
Details: in vivo, po, route gavage; for APTT / Bas / Eos / Fbg / Hb / Ht / Lym / MCH / MCHC / MCV / Mono / Neu / PT / Plat / RBC / Ret / WBC: tissue Blood; for KIDNEY_L / KIDNEY_R / KIDNEY_TOTAL: tissue Kidney; for LIVER: tissue Liver; for A/G / ALP / ALT / AST / BUN / CRE / Ca / Cl / DBIL / GLC / IP / K / LDH / Na / PL / RALB / TBIL / TC / TG / TP / gamma-GTP: tissue Plasma
[1] = 0 mg/kg, 72 h, dose level Control, time 3 day
[2] = 0 mg/kg, […], dose level Control, time 7 day
[3] = 0 mg/kg, […], dose level Control, time 14 day
[4] = 0 mg/kg, […], dose level Control, time 28 day
[5] = 10 mg/kg, 72 h, dose level Low, time 3 day
[6] = 10 mg/kg, […], dose level Low, time 7 day
[7] = 10 mg/kg, […], dose level Low, time 14 day
[8] = 10 mg/kg, […], dose level Low, time 28 day

NC(=O)N/N=C/c1ccc([N+](=O)[O-])o1 [NITROFURAZONE]
TERMINAL_BW [1]: 218.5 g
APTT [1]: 14.6 s
Bas [1]: 0%
Eos [1]: 0.6%
Fbg [1]: 279.4 mg/dL
Hb [1]: 12.9 g/dL
Ht [1]: 39.6%
Lym [1]: 81%
MCH [1]: 21 pg
MCHC [1]: 32.6%
MCV [1]: 64.4 fL
Mono [1]: 2.6%
Neu [1]: 15%
PT [1]: 14.5 s
Plat [1]: 111.2 x10_4/uL
RBC [1]: 614.6 x10_4/ul
Ret [1]: 8.9%
WBC [1]: 76.9 x10_2/uL
KIDNEY_L [1]: 0.9 g
KIDNEY_R [1]: 0.9 g
KIDNEY_TOTAL [1]: 1.7 g
LIVER [1]: 9.8 g
A/G [1]: 0.9
ALP [1]: 2147 IU/L
ALT [1]: 51.2 IU/L
AST [1]: 78.2 IU/L
BUN [1]: 16 mg/dL
CRE [1]: 0.2 mg/dL
Ca [1]: 11.4 mg/dL
Cl [1]: 106.2 meq/L
DBIL [1]: 0.016 mg/dL
GLC [1]: 178.2 mg/dL
IP [1]: 7.9 mg/dL
K [1]: 4.4 meq/L
LDH [1]: 79 IU/L
Na [1]: 141.6 meq/L
PL [1]: 161.2 mg/dL
RALB [1]: 2.6 g/dL
TBIL [1]: 0.046 mg/dL
TC [1]: 92.4 mg/dL
TG [1]: 100.8 mg/dL
TP [1]: 5.6 g/dL
gamma-GTP [1]: 1 IU/L
TERMINAL_BW [2]: 259.3 g
TERMINAL_BW [3]: 324.7 g
TERMINAL_BW [4]: 406 g
APTT [2]: 16.9 s
Bas [2]: 0.2%
Eos [2]: 1%
Fbg [2]: 268 mg/dL
Hb [2]: 13.4 g/dL
Ht [2]: 39.9%
Lym [2]: 75%
MCH [2]: 21.1 pg
MCHC [2]: 33.5%
MCV [2]: 62.8 fL
Mono [2]: 3.2%
Neu [2]: 20.2%
PT [2]: 14.4 s
Plat [2]: 112.6 x10_4/uL
RBC [2]: 636.4 x10_4/ul
Ret [2]: 7%
WBC [2]: 96.1 x10_2/uL
APTT [3]: 14.3 s
Bas [3]: 0.2%
Eos [3]: 0.8%
Fbg [3]: 303 mg/dL
Hb [3]: 13.6 g/dL
Ht [3]: 41.4%
Lym [3]: 77.8%
MCH [3]: 20.7 pg
MCHC [3]: 32.8%
MCV [3]: 63.2 fL
Mono [3]: 2%
Neu [3]: 18.2%
PT [3]: 14.4 s
Plat [3]: 121.6 x10_4/uL
RBC [3]: 657.2 x10_4/ul
Ret [3]: 5.7%
WBC [3]: 91.3 x10_2/uL
APTT [4]: 16.2 s
Bas [4]: 0%
Eos [4]: 1.2%
Fbg [4]: 275.6 mg/dL
Hb [4]: 15 g/dL
Ht [4]: 44.5%
Lym [4]: 77%
MCH [4]: 19.5 pg
MCHC [4]: 33.7%
MCV [4]: 58 fL
Mono [4]: 1.8%
Neu [4]: 19.4%
PT [4]: 14.9 s
Plat [4]: 105 x10_4/uL
RBC [4]: 767.2 x10_4/ul
Ret [4]: 2.6%
WBC [4]: 74.7 x10_2/uL
KIDNEY_L [2]: 1.1 g
KIDNEY_R [2]: 1.1 g
KIDNEY_TOTAL [2]: 2.1 g
KIDNEY_L [3]: 1.3 g
KIDNEY_R [3]: 1.2 g
KIDNEY_TOTAL [3]: 2.5 g
KIDNEY_L [4]: 1.5 g
KIDNEY_R [4]: 1.3 g
KIDNEY_TOTAL [4]: 2.8 g
LIVER [2]: 12.2 g
LIVER [3]: 15.1 g
LIVER [4]: 16.8 g
A/G [2]: 0.8
ALP [2]: 1832.4 IU/L
ALT [2]: 45.8 IU/L
AST [2]: 69 IU/L
BUN [2]: 15.6 mg/dL
CRE [2]: 0.2 mg/dL
Ca [2]: 11.2 mg/dL
Cl [2]: 104 meq/L
DBIL [2]: 0.022 mg/dL
GLC [2]: 196.2 mg/dL
IP [2]: 7.5 mg/dL
K [2]: 3.6 meq/L
LDH [2]: 69 IU/L
Na [2]: 141.6 meq/L
PL [2]: 146.4 mg/dL
RALB [2]: 2.6 g/dL
TBIL [2]: 0.054 mg/dL
TC [2]: 76.2 mg/dL
TG [2]: 93.2 mg/dL
TP [2]: 5.6 g/dL
gamma-GTP [2]: 1 IU/L
A/G [3]: 0.8
ALP [3]: 1410 IU/L
ALT [3]: 43.4 IU/L
AST [3]: 65.6 IU/L
BUN [3]: 17.4 mg/dL
CRE [3]: 0.2 mg/dL
Ca [3]: 11 mg/dL
Cl [3]: 105.4 meq/L
DBIL [3]: 0.012 mg/dL
GLC [3]: 195.4 mg/dL
IP [3]: 7.5 mg/dL
K [3]: 4 meq/L
LDH [3]: 70 IU/L
Na [3]: 142.8 meq/L
PL [3]: 159.8 mg/dL
RALB [3]: 2.6 g/dL
TBIL [3]: 0.046 mg/dL
TC [3]: 79.2 mg/dL
TG [3]: 119 mg/dL
TP [3]: 5.8 g/dL
gamma-GTP [3]: 1.2 IU/L
A/G [4]: 0.8
ALP [4]: 1109.8 IU/L
ALT [4]: 38 IU/L
AST [4]: 62.4 IU/L
BUN [4]: 16.6 mg/dL
CRE [4]: 0.2 mg/dL
Ca [4]: 10.9 mg/dL
Cl [4]: 104 meq/L
DBIL [4]: 0.014 mg/dL
GLC [4]: 192 mg/dL
IP [4]: 6.9 mg/dL
K [4]: 3.4 meq/L
LDH [4]: 61.2 IU/L
Na [4]: 145.2 meq/L
PL [4]: 139.6 mg/dL
RALB [4]: 2.7 g/dL
TBIL [4]: 0.068 mg/dL
TC [4]: 60.6 mg/dL
TG [4]: 145.4 mg/dL
TP [4]: 6.1 g/dL
gamma-GTP [4]: 0.8 IU/L
TERMINAL_BW [5]: 217.9 g
APTT [5]: 14.6 s
Bas [5]: 0.2%
Eos [5]: 0.8%
Fbg [5]: 265.6 mg/dL
Hb [5]: 12.9 g/dL
Ht [5]: 39.6%
Lym [5]: 77.8%
MCH [5]: 22.1 pg
MCHC [5]: 32.6%
MCV [5]: 67.8 fL
Mono [5]: 3.2%
Neu [5]: 17.8%
PT [5]: 14.4 s
Plat [5]: 118.7 x10_4/uL
RBC [5]: 584.8 x10_4/ul
Ret [5]: 9.3%
WBC [5]: 97.1 x10_2/uL
KIDNEY_L [5]: 1 g
KIDNEY_R [5]: 1 g
KIDNEY_TOTAL [5]: 1.9 g
LIVER [5]: 10.7 g
A/G [5]: 0.9
ALP [5]: 1665.4 IU/L
ALT [5]: 49 IU/L
AST [5]: 74.6 IU/L
BUN [5]: 15 mg/dL
CRE [5]: 0.2 mg/dL
Ca [5]: 11.3 mg/dL
Cl [5]: 105.6 meq/L
DBIL [5]: 0.018 mg/dL
GLC [5]: 189 mg/dL
IP [5]: 7.9 mg/dL
K [5]: 4.3 meq/L
LDH [5]: 69.6 IU/L
Na [5]: 141.4 meq/L
PL [5]: 151.8 mg/dL
RALB [5]: 2.6 g/dL
TBIL [5]: 0.048 mg/dL
TC [5]: 85 mg/dL
TG [5]: 97.8 mg/dL
TP [5]: 5.5 g/dL
gamma-GTP [5]: 1 IU/L
TERMINAL_BW [6]: 257.3 g
TERMINAL_BW [7]: 318.7 g
TERMINAL_BW [8]: 442.9 g
APTT [6]: 16.7 s
Bas [6]: 0%
Eos [6]: 1%
Fbg [6]: 257 mg/dL
Hb [6]: 13.2 g/dL
Ht [6]: 39.3%
Lym [6]: 79.2%
MCH [6]: 21.5 pg
MCHC [6]: 33.7%
MCV [6]: 64 fL
Mono [6]: 2.4%
Neu [6]: 16.6%
PT [6]: 14.3 s
Plat [6]: 113.7 x10_4/uL
RBC [6]: 615 x10_4/ul
Ret [6]: 7.1%
WBC [6]: 83.6 x10_2/uL
APTT [7]: 15.2 s
Bas [7]: 0.2%
Eos [7]: 0.8%
Fbg [7]: 353 mg/dL
Hb [7]: 13.5 g/dL
Ht [7]: 40.9%
Lym [7]: 80%
MCH [7]: 20.2 pg
MCHC [7]: 33%
MCV [7]: 61.3 fL
Mono [7]: 2%
Neu [7]: 14.4%
PT [7]: 14.7 s
Plat [7]: 111.7 x10_4/uL
RBC [7]: 666.6 x10_4/ul
Ret [7]: 4.5%
WBC [7]: 106.9 x10_2/uL
APTT [8]: 16.4 s
Bas [8]: 0%
Eos [8]: 1.4%
Fbg [8]: 292.6 mg/dL
Hb [8]: 14.7 g/dL
Ht [8]: 43.8%
Lym [8]: 76.4%
MCH [8]: 19.3 pg
MCHC [8]: 33.6%
MCV [8]: 57.6 fL
Mono [8]: 2.2%
Neu [8]: 19.4%
PT [8]: 14.8 s
Plat [8]: 94.4 x10_4/uL
RBC [8]: 761 x10_4/ul
Ret [8]: 3%
WBC [8]: 94.8 x10_2/uL
KIDNEY_L [6]: 1.1 g
KIDNEY_R [6]: 1.1 g
KIDNEY_TOTAL [6]: 2.2 g
KIDNEY_L [7]: 1.3 g
KIDNEY_R [7]: 1.2 g
KIDNEY_TOTAL [7]: 2.5 g
KIDNEY_L [8]: 1.5 g
KIDNEY_R [8]: 1.5 g
KIDNEY_TOTAL [8]: 3.1 g
LIVER [6]: 12.9 g
LIVER [7]: 15.3 g
LIVER [8]: 18.6 g
A/G [6]: 0.9
ALP [6]: 1835.8 IU/L
ALT [6]: 44.6 IU/L
AST [6]: 70.8 IU/L
BUN [6]: 15.6 mg/dL
CRE [6]: 0.2 mg/dL
Ca [6]: 11.1 mg/dL
Cl [6]: 104 meq/L
DBIL [6]: 0.016 mg/dL
GLC [6]: 184 mg/dL
IP [6]: 7.7 mg/dL
K [6]: 3.7 meq/L
LDH [6]: 67 IU/L
Na [6]: 141.4 meq/L
PL [6]: 156.4 mg/dL
RALB [6]: 2.6 g/dL
TBIL [6]: 0.05 mg/dL
TC [6]: 83.4 mg/dL
TG [6]: 102 mg/dL
TP [6]: 5.6 g/dL
gamma-GTP [6]: 1 IU/L
A/G [7]: 0.8
ALP [7]: 1653.4 IU/L
ALT [7]: 47.4 IU/L
AST [7]: 83.6 IU/L
BUN [7]: 17.8 mg/dL
CRE [7]: 0.2 mg/dL
Ca [7]: 10.9 mg/dL
Cl [7]: 105 meq/L
DBIL [7]: 0.014 mg/dL
GLC [7]: 185.8 mg/dL
IP [7]: 7.3 mg/dL
K [7]: 4.1 meq/L
LDH [7]: 92.4 IU/L
Na [7]: 142.4 meq/L
PL [7]: 156.2 mg/dL
RALB [7]: 2.7 g/dL
TBIL [7]: 0.044 mg/dL
TC [7]: 77.8 mg/dL
TG [7]: 123.8 mg/dL
TP [7]: 5.8 g/dL
gamma-GTP [7]: 1.4 IU/L
A/G [8]: 0.8
ALP [8]: 1381.2 IU/L
ALT [8]: 39.4 IU/L
AST [8]: 64 IU/L
BUN [8]: 17.4 mg/dL
CRE [8]: 0.2 mg/dL
Ca [8]: 10.8 mg/dL
Cl [8]: 103.6 meq/L
DBIL [8]: 0.014 mg/dL
GLC [8]: 187.2 mg/dL
IP [8]: 6.6 mg/dL
K [8]: 3.6 meq/L
LDH [8]: 47.8 IU/L
Na [8]: 143 meq/L
PL [8]: 154.2 mg/dL
RALB [8]: 2.7 g/dL
TBIL [8]: 0.062 mg/dL
TC [8]: 78 mg/dL
TG [8]: 133.6 mg/dL
TP [8]: 6.2 g/dL
gamma-GTP [8]: 1 IU/L

Reference: ChEMBL document CHEMBL3885861, “Open TG-GATES”
